This note sets out measurements from patent US10711006B2, “Selective Bruton's tyrosine kinase inhibitor and use thereof” (HANGZHOU HERTZ PHARMACEUTICAL CO., LTD., priority 2016, dated 2020).

For assay [1], the system named is human lung cancer cell (A549). The assay is described as follows: In-vitro tumor cell proliferation inhibition (CCK-8), A549. To be noted: A549, 72 h, read-out: Tumor cell proliferation inhibitory activity (IC50, μM) A549.
Experimental: (§1) The in-vitro antitumor activity assay was carried out on the synthesized compound by using different solid tumors and leukemia cell lines:
(§2) Cell lines: human lung cancer cell (A549), human mantle cell lymphoma (MINO), diffuse giant B-cell lymphoma (OCI-LY10), and human diffuse large B lymphoma (TMD-8).
(§3) Preparation method of the drug: the drug was dissolved in DMSO to make a 10 mM stock solution, and then the stock solution was diluted in a certain ratio to obtain 5 different concentrations (test concentration 100×). In-vitro culture of tumor cells:
(§4) The tumor cells A549, MINO, OCI-LY10, and TMD-8 were seeded in a 96-well plate at 4000 cells/200 μL/well and then incubated overnight at 37° C. in a 5% CO2 cell culture incubator. 2 μL of the compound was added to each well to final concentrations of 50 μM, 10 μM, 2 μM, 0.4 μM, and 0.08 μM and then incubated for 72 hours at 37° C. in a 5% CO2 cell incubator, with DMSO (2%) as a control group. […] Wells loaded with the corresponding amount of cell culture fluid the and CCK-8 solution but no cells were considered as blank controls. The absorbance (OD value) was measured at 450 nm using a microplate reader, and the obtained data was used to calculate IC50.
For assay [2], the system named is human diffuse large B lymphoma (TMD-8). Description: In-vitro tumor cell proliferation inhibition (CCK-8), TMD-8. To be noted: TMD8, 72 h, read-out: Tumor cell proliferation inhibitory activity (IC50, nM) TMD-8.
Experimental: as §1, §2, §3, §4
The target in a further assay is BTK Kinase (Homo sapiens (Human), UniProt Q06187). Description: In-vitro Btk kinase inhibitory activity assay. It is filed as biochemical. Here is the method: In-Vitro Btk Kinase Inhibitory Activity Assay for Compounds of the Present Invention:
10 μL of the 50× drug stock solution was added to a 96-well plate and then 90 μL of a 1× Kinase Buffer was added and the 96-well plate was shaken for 10 minutes on a shaker. From each well of the 96-well plate, 5 μL of the drug solution was taken and then transferred to a 384-well plate which was provided with 2 duplicate wells.
Preparation of a 2.5× Kinase Buffer: an enzyme was added to the 1× kinase base buffer.
Prepare a 2.5× oligopeptide solution: FAM-labeled oligopeptide and ATP were added to the 1× kinase base buffer.
10 μL of the 2.5× Kinase Buffer was added to the 384-well plate loaded with 5 μL of the drug solution and incubation was then carried out for 10 minutes at room temperature. 10 μL of the 2.5× oligopeptide solution was added to the 384-well plate and incubation was then carried out for 1 hour at 28° C. The reaction was stopped by adding 25 μL of a stop buffer. The readings were recorded and the inhibition rate of the compound on the enzyme was calculated. The IC50 of BTK kinase was calculated by fitting.

For assay [3], the system named is human mantle cell lymphoma (MINO). The assay is described as follows: In-vitro tumor cell proliferation inhibition (CCK-8), MINO. To be noted: 72 h, read-out: Tumor cell proliferation inhibitory activity (IC50, μM) MINO.
Experimental: as §1, §2, §3, §4
In assay [4] the test system is diffuse giant B-cell lymphoma (OCI-LY10). Description: In-vitro tumor cell proliferation inhibition (CCK-8), OCI-LY10. To be noted: Homo sapiens, OCI-Ly10, 72 h, read-out: Tumor cell proliferation inhibitory activity (IC50, nM) OCI-LY10.
For another assay, the target named is hERG potassium channel (Homo sapiens (Human), UniProt Q12809). The assay is described as follows: hERG potassium channel inhibitory activity, manual patch clamp in CHO cells. The class given is cell-based. The settings on record: CHO cells stably expressing hERG, whole-cell patch clamp. Here is the method: The cells used in this experiment were CHO cell lines transfected with HergCdna and stably expressing Herg channels (supplied by Sophion Bioscience, Denmark). The cells were cultured in a medium containing the following components (all from Invitrogen): Ham's F12 medium, 10% (v/v) inactivated fetal bovine serum, 100 μg/ml hygromycin B, 100 μg/ml Geneticin. […] 24 to 48 hours before an electrophysiological experiment, CHO Herg cells were transferred to circular slides placed in the culture dishes and grow with the same culture liquid under the same culture conditions as above. The density of CHO Herg cells on each circular slide was required to reach such a value that most cells were independent and stand alone.
Chain of hERG potassium channel (Q12809 whole entry): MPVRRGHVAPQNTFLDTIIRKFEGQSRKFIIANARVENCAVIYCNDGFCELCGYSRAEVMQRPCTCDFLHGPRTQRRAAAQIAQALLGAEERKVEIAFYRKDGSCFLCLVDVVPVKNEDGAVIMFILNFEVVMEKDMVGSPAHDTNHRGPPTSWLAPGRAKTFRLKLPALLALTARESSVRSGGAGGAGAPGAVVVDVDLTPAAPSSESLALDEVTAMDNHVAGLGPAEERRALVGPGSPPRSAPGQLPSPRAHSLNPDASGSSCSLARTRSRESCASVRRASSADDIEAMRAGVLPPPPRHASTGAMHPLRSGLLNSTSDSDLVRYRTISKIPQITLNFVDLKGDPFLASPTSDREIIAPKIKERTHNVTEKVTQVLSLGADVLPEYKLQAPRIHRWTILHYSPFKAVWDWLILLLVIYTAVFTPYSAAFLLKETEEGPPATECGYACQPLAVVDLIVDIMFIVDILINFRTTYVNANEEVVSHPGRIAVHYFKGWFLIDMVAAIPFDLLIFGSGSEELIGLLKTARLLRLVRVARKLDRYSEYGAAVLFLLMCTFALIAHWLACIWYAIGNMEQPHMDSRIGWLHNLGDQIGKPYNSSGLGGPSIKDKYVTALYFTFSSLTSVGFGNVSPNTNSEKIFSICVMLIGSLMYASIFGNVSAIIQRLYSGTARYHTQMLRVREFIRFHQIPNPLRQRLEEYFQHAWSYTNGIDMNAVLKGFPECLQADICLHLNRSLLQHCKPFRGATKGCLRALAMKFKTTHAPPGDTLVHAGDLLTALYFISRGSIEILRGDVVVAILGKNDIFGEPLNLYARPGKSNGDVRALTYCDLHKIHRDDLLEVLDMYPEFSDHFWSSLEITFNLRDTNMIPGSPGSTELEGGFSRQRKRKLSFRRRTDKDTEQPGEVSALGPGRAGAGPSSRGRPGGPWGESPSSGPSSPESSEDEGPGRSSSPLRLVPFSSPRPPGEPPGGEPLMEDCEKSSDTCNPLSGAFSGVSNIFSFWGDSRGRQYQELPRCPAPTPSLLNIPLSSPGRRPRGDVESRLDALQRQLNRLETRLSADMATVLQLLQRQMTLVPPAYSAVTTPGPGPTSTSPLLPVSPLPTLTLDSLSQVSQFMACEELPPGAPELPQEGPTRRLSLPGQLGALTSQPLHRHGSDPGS
2. Treatment and Dilution of a Compound
Before the test, the compound was first diluted with DMSO at gradient to make stock solutions with concentrations of 10, 3, 1, 0.3 and 0.1 Mm and the stock solutions were then diluted with extracellular fluid to a final Mm test concentration. Except that the DMSO concentration in the 30 Mm compound test solution was 0.3%, the final concentration of DMSO in each of the compound solutions with other concentrations was 0.1%. The test concentration of a positive control Cisapridewas 0.1 Mm. All compound solutions were conventionally sonicated and shaken for 5 to 10 minutes to ensure complete dissolution of the compound.
3. Electrophysiological Recording System and Data Analysis
This experiment uses a manual patch clamp system (HEKA EPC-10 signal amplifier and digital conversion system, purchased from HEKA Electronics, Germany) for the recording of whole cell currents. The circular slides with CHO Herg cells growing on the surfaces were placed in an electrophysiological recording slot under an inverted microscope. The extracellular fluid was used for continuous perfusion in the recording slot (approximately lml per minute). The experimental procedure uses a conventional whole-cell patch clamp current recording technique. Unless otherwise stated, the experiment was carried out at regular room temperature ([…]). The cells were clamped at a voltage of −80 Mv. The cell clamp voltage was depolarized to +20 Mv to activate the Herg potassium channel, and 5 seconds later, it was clamped to −50 Mv to eliminate inactivation and generate tail current. The peak of the tail current was used as the value of the Herg current. After the hERG potassium current recorded in the above step was stabilized under the continuous extracellular fluid perfusion in the recording slot, the drug to be tested can be superimposed to the perfusion until the inhibitory effect of the drug on the hERG current reaches a steady state. Generally, the criterion for determine whether or not the stable state was reached was that the recent three consecutive current recording lines were coincident. After the steady state was reached, extracellular fluid perfusion was carried out for flushing until the hERG current returns to the magnitude before the drug was added. One cell may be used for testing one or more drugs, or multiple concentrations of the same drug, and flushing with extracellular fluid was carried out between tests of different drugs. Cisapride (purchased from Sigma) was used in the experiment as a positive control to ensure that the cells used were of normal quality. The test data was analyzed by data analysis software provided by HEKA Patchmaster, Microsoft Excel and Graphpad Prism.
In general terms: The hERG channel carries a current that helps repolarise heart muscle cells.

Chain of BTK Kinase (Q06187 whole entry): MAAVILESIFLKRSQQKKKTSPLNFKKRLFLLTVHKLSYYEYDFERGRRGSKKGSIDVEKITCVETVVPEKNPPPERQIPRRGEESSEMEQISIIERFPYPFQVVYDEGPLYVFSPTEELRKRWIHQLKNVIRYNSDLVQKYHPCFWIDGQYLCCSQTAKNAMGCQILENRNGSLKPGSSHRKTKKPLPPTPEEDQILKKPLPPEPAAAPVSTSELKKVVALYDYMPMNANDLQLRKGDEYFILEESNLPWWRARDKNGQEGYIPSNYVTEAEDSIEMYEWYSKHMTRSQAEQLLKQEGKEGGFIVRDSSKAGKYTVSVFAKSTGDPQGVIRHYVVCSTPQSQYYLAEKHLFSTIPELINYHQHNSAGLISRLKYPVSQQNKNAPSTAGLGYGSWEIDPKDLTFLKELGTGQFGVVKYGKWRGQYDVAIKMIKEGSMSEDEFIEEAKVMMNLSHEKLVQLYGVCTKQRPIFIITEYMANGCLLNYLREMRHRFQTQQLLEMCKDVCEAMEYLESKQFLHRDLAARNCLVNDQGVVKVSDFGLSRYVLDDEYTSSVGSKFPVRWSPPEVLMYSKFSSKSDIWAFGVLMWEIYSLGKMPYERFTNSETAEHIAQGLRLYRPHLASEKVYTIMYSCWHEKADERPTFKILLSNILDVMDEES

With `CC/C=C/C(=O)N1CCC[C@@H](n2nc(-c3ccc(Oc4ccccc4)nc3)c3c(N)ncnc32)C1` [Compound 20a, (R)-1-(3-(4-amino-3-(6-phenoxypyridin-3-yl)-1H-pyrazolo[3,4-d]pyrimidin-1-yl)piperidin-1-yl) pent-2-en-1-one], the IC50 was determined as 7.7 µM in assay [1]; 15.2 nM in assay [2]; 18.6 nM on BTK Kinase; 8.92 µM in assay [3]; 12.5 nM in assay [4]; 14800 nM at hERG potassium channel.

On to `C=CC(=O)N1CCC[C@@H](n2nc(-c3cnc(Oc4ccccc4)nc3)c3c(N)ncnc32)C1` [Compound 18, (R)-1-(3-(4-amino-3-(2-phenoxypyrimidin-5-yl)-1H-pyrazolo[3,4-d]pyrimidin-1-yl)piperidin-1-yl)prop-2-en-1-one], for which the IC50 in assay [1] stood at 19.5 µM; in assay [2], 8.14 nM; against BTK Kinase, 10.3 nM; in assay [3] it was 20.3 µM; in assay [4], 32.1 nM.

Regarding `C=CC(=O)N1CCC[C@@H](n2nc(-c3ccc(Oc4ccc(F)cc4)nc3)c3c(N)ncnc32)C1` [Compound 15b, (R)-1-(3-(4-amino-3-(6-(4-fluorophenoxypyridine)-3-yl)-1H-pyrazolo[3,4-d]pyrimidin-1-yl)piperidin-1-yl)prop-2-en-1-one], the IC50 in assay [1] amounted to 2.88 µM; in assay [2], 2.37 nM; on BTK Kinase it was 9.5 nM; in assay [3], 8.19 µM; in assay [4], 3.58 nM; on hERG potassium channel, 11600 nM.

Turning to `C=CC(=O)N1CCC[C@@H](n2nc(-c3ccc(Oc4ccccc4)cn3)c3c(N)ncnc32)C1` [Compound 19, (R)-1-(3-(4-amino-3-(5-phenoxypyridin-2-yl)-1H-pyrazolo[3,4-d]pyrimidin-1-yl)piperidin-1-yl)prop-2-en-1-one], the IC50 amounted to 4.52 µM in assay [1]; 10.2 nM in assay [2]; 5.3 nM against BTK Kinase; 7.12 µM in assay [3]; 13.6 nM in assay [4]; 10600 nM against hERG potassium channel.

Take `C=CC(=O)N1CCC[C@@H](n2nc(-c3ccc(Oc4ccccc4F)nc3)c3c(N)ncnc32)C1` [Compound 15d, (R)-1-(3-(4-amino-3-(6-(2-fluorophenoxypyridine)-3-yl)-1H-pyrazolo[3,4-d]pyrimidin-1-yl)piperidin-1-yl)prop-2-en-1-one]: the IC50 in assay [1] amounted to 5.12 µM; in assay [2], 3.83 nM; at BTK Kinase it was 7.5 nM; in assay [3], 9.15 µM; in assay [4], 5.12 nM.

On to `C=CC(=O)N1CCC[C@@H](n2nc(-c3ccc(Oc4cccc(F)c4F)nc3F)c3c(N)ncnc32)C1` [Compound 17i, (R)-1-(3-(4-amino-3-(6-(2,3-difluorophenoxy)-2-fluoropyridin-3-yl)-1H-pyrazolo[3,4-d]pyrimidin-1-yl)piperidin-1-yl)prop-2-en-1-one], for which the IC50 in assay [1] came to 1.02 µM; in assay [2], 3.8 nM; on BTK Kinase, 1.2 nM; in assay [3], 7.65 µM; in assay [4], 2.04 nM.

On to `CC#CC(=O)N1CC[C@@H](n2nc(-c3ccc(Oc4ccccc4)nc3)c3c(N)ncnc32)C1` [Compound 25a, (R)-1-(3-(4-amino-3-(6-phenoxypyridin-3-yl)-1H-pyrazolo[3,4-d]pyrimidin-1-yl)pyrrolidin-1-yl)but-2-yn-1-one], for which the IC50 in assay [1] came out at 5.3 µM; in assay [2], 5.18 nM; at BTK Kinase, 25.1 nM; in assay [3] it was 6.5 µM; in assay [4] it was 5.13 nM; on hERG potassium channel it was 13600 nM.

Take `C=CC(=O)N1CCC[C@@H](n2nc(-c3ccc(Oc4ccc(C)cc4)nc3)c3c(N)ncnc32)C1` [Compound 15i]: the IC50 in assay [1] is 8.21 µM; in assay [2], 4.99 nM; against BTK Kinase, 6.5 nM; in assay [3] it was 8.35 µM; in assay [4] it was 3.19 nM; on hERG potassium channel, 13500 nM.

Consider `C=CC(=O)N1CC[C@@H](n2nc(-c3ccc(Oc4ccccc4)nc3)c3c(N)ncnc32)C1` [Compound 23a, (R)-1-(3-(4-amino-3-(6-phenoxypyridin-3-yl)-1H-pyrazolo[3,4-d]pyrimidin-1-yl)pyrrolidin-1-yl)prop-2-en-1-one], for which the IC50 in assay [1] amounted to 2.83 µM; in assay [2], 28.3 nM; on BTK Kinase it was 4.4 nM; in assay [3] it was 9.19 µM; in assay [4], 6.91 nM; against hERG potassium channel it was 18200 nM.
